Laboratory results: patent US20150352108A1, “AMINO-PYRIMIDINE COMPOUNDS AS INHIBITORS OF TBK1 AND/OR IKK EPSILON” (Alzheimer's Institute of America, priority 2009, published 2015)
Read-outs that look alike come from different tables or passages of the source.

How the values were obtained:
IKKε = biological target: T1, IKKε (Homo sapiens, UniProt Q14164); experiment: In-vitro IKKε kinase assay ([γ33]ATP filter-plate); assay type: biochemical
T1 construct: His-tag; made in house; host or cells: Sf9 insect cells
T1 sequence (Q14164 1-716): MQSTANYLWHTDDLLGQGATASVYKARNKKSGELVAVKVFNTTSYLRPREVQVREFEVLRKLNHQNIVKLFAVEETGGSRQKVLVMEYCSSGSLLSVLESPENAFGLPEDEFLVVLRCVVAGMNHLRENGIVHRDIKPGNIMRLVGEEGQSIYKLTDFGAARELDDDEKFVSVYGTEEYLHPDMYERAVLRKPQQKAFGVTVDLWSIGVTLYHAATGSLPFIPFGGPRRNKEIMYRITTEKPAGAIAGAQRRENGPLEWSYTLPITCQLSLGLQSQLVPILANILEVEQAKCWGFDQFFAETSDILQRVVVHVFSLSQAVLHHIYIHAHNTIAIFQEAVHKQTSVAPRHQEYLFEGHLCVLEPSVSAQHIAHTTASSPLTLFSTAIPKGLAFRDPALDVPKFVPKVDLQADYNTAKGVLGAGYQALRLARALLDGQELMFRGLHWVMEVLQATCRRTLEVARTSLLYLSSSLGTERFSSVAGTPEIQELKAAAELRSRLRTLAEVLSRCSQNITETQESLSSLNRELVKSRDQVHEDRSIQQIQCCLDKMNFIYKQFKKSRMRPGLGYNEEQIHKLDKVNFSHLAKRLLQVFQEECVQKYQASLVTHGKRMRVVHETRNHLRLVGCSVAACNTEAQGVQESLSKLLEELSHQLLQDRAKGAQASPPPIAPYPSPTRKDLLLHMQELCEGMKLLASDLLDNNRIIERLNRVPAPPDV
In short: (§1)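 His-tagged IKKε and TBK1 from Sf9 cells were assayed with myelin basic protein or casein and [γ33]ATP at 2×Km ATP (32 μM for IKKε, 60 μM for TBK1). Enzyme was 0.1 or 0.015 μg/ml for IKKε and 0.1 or 0.02 μg/ml for TBK1 (normal/sensitized). Reactions ran 30-45 min, were filter-captured, scintillation-counted, and normalized to DMSO after background subtraction.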

TBK1 = biological target: T2, TBK1 (Homo sapiens, UniProt Q9UHD2); experiment: In-vitro TBK1 kinase assay ([γ33]ATP filter-plate); assay type: biochemical
T2 construct: His-tag; made in house; host or cells: Sf9 insect cells
T2 sequence (Q9UHD2 1-729): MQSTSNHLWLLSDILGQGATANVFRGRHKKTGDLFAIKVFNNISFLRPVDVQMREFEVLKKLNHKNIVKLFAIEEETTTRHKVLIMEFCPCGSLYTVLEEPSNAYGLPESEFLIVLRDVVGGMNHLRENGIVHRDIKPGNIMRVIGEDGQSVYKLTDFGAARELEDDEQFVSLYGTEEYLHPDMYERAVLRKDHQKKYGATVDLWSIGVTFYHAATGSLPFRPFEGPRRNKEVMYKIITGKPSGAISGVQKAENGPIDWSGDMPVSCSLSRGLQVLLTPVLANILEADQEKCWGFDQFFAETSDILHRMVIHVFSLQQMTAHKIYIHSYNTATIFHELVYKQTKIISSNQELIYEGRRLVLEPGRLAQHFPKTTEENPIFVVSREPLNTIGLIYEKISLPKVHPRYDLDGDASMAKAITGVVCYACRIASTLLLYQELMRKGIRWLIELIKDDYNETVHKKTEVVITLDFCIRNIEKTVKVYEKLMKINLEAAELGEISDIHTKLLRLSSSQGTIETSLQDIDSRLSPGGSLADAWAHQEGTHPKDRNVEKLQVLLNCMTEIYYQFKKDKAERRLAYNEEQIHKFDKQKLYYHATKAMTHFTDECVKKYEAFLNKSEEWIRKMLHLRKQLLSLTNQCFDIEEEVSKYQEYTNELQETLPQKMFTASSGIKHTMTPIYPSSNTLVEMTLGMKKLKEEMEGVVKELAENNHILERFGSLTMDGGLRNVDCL
In short: as §1

[1] = tested on: IKKε-mediated phosphorylation of IRF3; experiment: In-situ phosphorylation of IRF3 (pIRF3 Ser396 ELISA) in HEK293T cells cotransfected with IRF3 and IKKε; assay type: cell-based; conditions: Homo sapiens, HEK-293T
In short: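 Cells for the IRF7 Western blots carried IRF7 and TBK1 plasmids, were seeded at 150,000/well, exposed to compound overnight and probed for pSer477/Ser479 IRF7. The ELISA readout used IRF3 + IKKε-cotransfected HEK293T at 20,000/well with 20 h treatment, quantifying pSer396 IRF3 relative to DMSO, plus a parallel CellTiter-Glo viability check.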

[2] = text bins, read-out: IC50 for inhibition of the kinase activity of IKKε
[3] = text bins, read-out: IC50 for inhibition of the kinase activity of TBK1
[4] = HEK293T cells in culture, Table 3, read-out: pIRF3 ELISA IC50
[5] = HEK293T cells, 20 hours, text bins, read-out: IC50 for inhibition of the in-situ IKKε-mediated phosphorylation of IRF3

IC50 (IKKε; Table 3, read-out: IKKε IC50) [nM]	IC50 (IKKε; [2]) [nM]	IC50 (TBK1; Table 3, read-out: TBK1 IC50) [nM]	IC50 (TBK1; [3]) [nM]	IC50 [1, 4] [nM]	IC50 [1, 5] [nM]	SMILES
2.4	< 5	0.4	< 10	276	250 to 500	CN(C)S(=O)(=O)Cc1cccc(Nc2nccc(-c3ccc(OC4CCOCC4)c(C#N)c3)n2)c1 [compound 601, 1-[3-({4-[3-Cyano-4-(tetrahydro-2H-pyran-4-yloxy)phenyl]pyrimidin-2-yl}amino)phenyl]-N,N-dimethylmethane-sulfonamide]
	< 5		< 10		100 to 250	COc1cc(Nc2nccc(-c3ccc(NC(=O)C4CC4)c(C#N)c3)n2)ccc1C(=O)N1CC(OC)C1 [compound 603, N-{2-Cyano-4-[2-({3-methoxy-4-[(3-methoxyazetidin-1-yl)carbonyl]phenyl}amino)pyrimidin-4-yl]phenyl} cyclopropane-carboxamide]
	< 5		< 10		100 to 250	N#Cc1cc(-c2ccnc(Nc3ccc(F)c(OCCN)c3)n2)ccc1OCC1CC1 [compound 612, 5-(2-{[3-(2-Aminoethoxy)-4-fluorophenyl]amino}pyrimidin-4-yl)-2-(cyclopropylmethoxy) benzonitrile]
0.8	< 5	0.4	< 10	19.9	< 100	COc1cc(Nc2nccc(-c3ccc(OC4CCOCC4)c(C#N)c3)n2)ccc1C(=O)N1CCCC1 [compound 613, 5-(2-{[3-Methoxy-4-(pyrrolidin-1-ylcarbonyl)phenyl]amino}pyrimidin-4-yl)-2-(tetrahydro-2H-pyran-4-yloxy)benzonitrile]
1.1	< 5	1.6	< 10	98.5	< 100	CN1CCN(CCNc2cccc(Nc3nccc(-c4ccc(OC5CCOCC5)c(C#N)c4)n3)c2)CC1 [compound 616, 5-{2-[(3-{[2-(4-Methylpiperazin-1-yl)ethyl]amino}phenyl)amino]pyrimidin-4-yl}-2-(tetrahydro-2H-pyran-4-yloxy)benzonitrile]
	< 5		< 10		< 100	CCN(CC)CCOc1cc(Nc2nccc(-c3ccc(OC4CCOCC4)c(C#N)c3)n2)ccc1C [compound 618, 5-[2-({3-[2-(Diethylamino)ethoxy]-4-methylphenyl}amino)pyrimidin-4-yl]-2-(tetrahydro-2H-pyran-4-yloxy)benzonitrile]
1.2	< 5	0.2	< 10	287	250 to 500	N#Cc1cc(-c2ccnc(Nc3cccc(CS(=O)(=O)NCCO)c3)n2)ccc1OC1CCOCC1 [compound 619, 1-[3-({4-[3-Cyano-4-(tetrahydro-2H-pyran-4-yloxy)phenyl]pyrimidin-2-yl}amino)phenyl]-N-(2-hydroxyethyl) methanesulfonamide]
0.7	< 5	1.9	< 10	50.3	< 100	N#Cc1cc(-c2ccnc(Nc3cccc(N4CCN(CCO)CC4)c3)n2)ccc1OC1CCOCC1 [compound 620, 5-[2-({3-[4-(2-Hydroxyethyl)piperazin-1-yl]phenyl}amino)pyrimidin-4-yl]-2-(tetrahydro-2H-pyran-4-yloxy)benzonitrile]
2	< 5	0.4	< 10	16.9	< 100	N#Cc1cc(-c2ccnc(Nc3cccc(CN4CCN(CCO)CC4)c3)n2)ccc1OC1CCOCC1 [compound 625, 5-{2-[(3-{[4-(2-Hydroxyethyl)piperazin-1-yl]methyl}phenyl)amino]pyrimidin-4-yl}-2-(tetrahydro-2H-pyran-4-yloxy)benzonitrile]
	< 5		< 10		< 100	N#Cc1cc(-c2ccnc(Nc3ccc(F)c(OCCN4CCNCC4)c3)n2)ccc1OC1CCOCC1 [compound 626, 5-[2-({4-Fluoro-3-[2-(piperazin-1-yl)ethoxy]phenyl}amino)pyrimidin-4-yl]-2-(tetrahydro-2H-pyran-4-yloxy)benzonitrile]
3	< 5	1.3	< 10	1100		N#Cc1cc(-c2ccnc(Nc3cccc(CS(=O)(=O)NCCO)c3)n2)ccc1NC(=O)C1CC1 [compound 627, N-(2-Cyano-4-{2-[(3-{[(2-hydroxyethyl)sulfamoyl]methyl}phenyl)amino]pyrimidin-4-yl}phenyl) cyclopropane-carboxamide]
0.8	< 5	1.3	< 10	31.9	< 100	CN(C)C(=O)Nc1cccc(Nc2nccc(-c3ccc(OC4CCOCC4)c(C#N)c3)n2)c1 [compound 631, 3-[3-({4-[3-Cyano-4-(tetrahydro-2H-pyran-4-yloxy)phenyl]pyrimidin-2-yl}amino)phenyl]-1,1-dimethylurea]
0.5	< 5	0.4	< 10	22.8	< 100	COCCOC1CN(C(=O)c2ccc(Nc3nccc(-c4ccc(OC5CCOCC5)c(C#N)c4)n3)cc2OC)C1 [compound 632, 5-{2-[(3-Methoxy-4-{[3-(2-methoxyethoxy)azetidin-1-yl]carbonyl}phenyl)amino]pyrimidin-4-yl}-2-(tetrahydro-2H-pyran-4-yloxy)benzonitrile]
	< 5		< 10		100 to 250	N#Cc1cc(-c2ccnc(Nc3ccc(F)c(OCCN)c3)n2)ccc1OC1CCOCC1 [compound 640, 5-(2-{[3-(2-Aminoethoxy)-4-fluorophenyl]amino}pyrimidin-4-yl)-2-(tetrahydro-2H-pyran-4-yloxy)benzonitrile]
0.7	< 5	1.3	< 10	30.9	< 100	N#Cc1cc(-c2ccnc(Nc3cccc(NC(=O)N4CCOCC4)c3)n2)ccc1OC1CCOCC1 [compound 646, N-[3-({4-[3-Cyano-4-(tetrahydro-2H-pyran-4-yloxy)phenyl]pyrimidin-2-yl}amino)phenyl] morpholine-4-carboxamide]
3.9	< 5	0.5	< 10	179	100 to 250	CNS(=O)(=O)Cc1cccc(Nc2nccc(-c3ccc(OC4CCOCC4)c(C#N)c3)n2)c1 [compound 648, 1-[3-({4-[3-Cyano-4-(tetrahydro-2H-pyran-4-yloxy)phenyl]pyrimidin-2-yl}amino)phenyl]-N-methylmethane-sulfonamide]
	< 5		< 10		< 100	CC(C)N1CCN(CCOc2cc(Nc3nccc(-c4ccc(OC5CCOCC5)c(C#N)c4)n3)ccc2F)CC1 [compound 650, 5-{2-[(4-Fluoro-3-{2-[4-(propan-2-yl)piperazin-1-yl]ethoxy}phenyl)amino]pyrimidin-4-yl}-2-(tetrahydro-2H-pyran-4-yloxy)benzonitrile]
